We go through 92 compounds from a melting point compilation (Tetko et al.; mined from patent text by program, amines drawn as free bases though some values may be those of a salt).

For the compound `O=C(NC1CCSCC1)c1cnccc1C(F)(F)F`, the melting point (usually the temperature, or range, at which the solid turns liquid) was in the range of 161 to 163 °C.

As to `OC12CC3CC(C1)CC(O)(C3)C2`, the melting point stood at 169 °C.

`CC(C#N)=C1CCN(c2ccc(N3C[C@H](CO)OC3=O)cc2F)CC1`: the melting point lay in the range of 100 to 102 °C.

For `COc1ccc2c(c1)N1CCOCC1C[N+]([O-])=C2c1ccco1` (configuration not stated), the melting point was 183 to 186 °C.

As for `C1=C(CC2=NCCN2)CCc2ccccc21`, the melting point was 221 to 223 °C.

Compound `CC(=O)SCC(CSC(C)=O)C(=O)N1c2ccccc2CCC1C(=O)O` (configuration not stated) displayed a melting point of 149 to 151 °C.

As for `CCCC(O)(CCC)c1ccc(Cl)c2nc3n(c12)CCCN3c1c(C)cc(Cl)cc1Cl`, the melting point was in the range of 176 to 178 °C.

`O=C1N[C@H](Cc2cccc(OCC(F)(F)C(F)F)c2)[C@H](c2ccc(F)cc2)O1` (racemic): the melting point is 113 to 114 °C.

`O=C(Nc1cccc(C(F)(F)F)c1)NC1CCN(S(=O)(=O)c2ccc(Cl)cc2)CC1` yielded a melting point of 116 to 118 °C.

`COc1ccc2oc(-c3ccccc3)c(C)c2c1` had a melting point of 106 to 107 °C.

With `COc1cc(C#N)ccc1-c1cc(-c2ccc(C#N)cc2)on1`, the melting point is 243 to 244 °C.

Take `CCCCCCCCCCCCOC(=O)c1cc(N=NN(CCO)c2ccc(C)cc2)ccc1[N+](=O)[O-]`: the melting point fell in the range of 64 to 66 °C.

Regarding `O=C(O)Cc1cc(=O)n(Cc2ccc([N+](=O)[O-])cc2)c2ccccc12`, the melting point lay in the range of 208 to 210 °C.

Regarding `CCCCCCCCCCCCCCC(=O)C(=O)NC(C=CC(=O)OC)CCCC` (configuration not stated), the melting point fell in the range of 48 to 50 °C.

Turning to `Cc1c(S(C)(=O)=O)cc([N+](=O)[O-])c(Cl)c1[N+](=O)[O-]`, the melting point is 174 to 175 °C.

Consider `COc1ccc(C)c(OC(F)C(=O)c2ccccc2)c1` (configuration not stated), for which the melting point lay in the range of 57 to 58 °C.

Consider `Cc1ncc2c(c1O)COC2S(C)(=O)=O` (configuration not stated), for which the melting point was 205 to 206 °C.

Turning to `CS(=O)(=O)c1ccc(-n2nc(C(F)(F)F)cc2-c2ccc(-c3ccoc3)cc2)cc1`, the melting point lay within 165 to 166 °C.

As for `CCOC(=O)Cn1c2ccccc2c2sccc(=O)c21`, the melting point lay in the range of 163 to 165 °C.

Turning to `Oc1ccc(-c2c(Cl)c3cc(O)ccc3n2Cc2ccc(OCCN3CCCCCC3)cc2)cc1`, the melting point lay in the range of 196 to 198 °C.

Consider `CC1(C)Cc2nc3ccccc3n2C(=O)N1`, for which the melting point is 205 to 210 °C.

Consider `NC(=O)C1CCN(c2c(Br)cncc2Br)CC1`, for which the melting point was in the range of 158 to 160 °C.

On to `CC1(C)OC(c2ccc(-c3ccc(Cl)cc3)cc2)OC1=O` (configuration not stated), for which the melting point lay within 108 to 110 °C.

`CCSC1OC(CO)C(OC2OC(CO)C(O)C(O)C2O)C(O)C1O` (configuration not stated) yielded a melting point of 191 to 192 °C.

Turning to `O=C(Nc1ccncc1)c1n[nH]c2ccc(-c3cncc4[nH]ccc34)cc12`, the melting point was over 250 °C.

`COc1ccc(/C=C/CCCCOc2ccc(C(=O)CCCC(=O)O)cc2CCC(=O)O)cc1` came in with a melting point of 113 to 114 °C.

On to `O=C(O)C(Cc1ccc(OCCN2c3ccccc3Oc3ccccc32)cc1)C(=O)O`, for which the melting point fell in the range of 303 to 307 °C.

The compound `CCN(CC)C(=O)Cc1c(-c2ccc(Cl)cc2)nc2c(C)cc(C)nn12` had a melting point of 162 to 165 °C.

`CC(=O)NCCC1CCc2ccn3nc(C)cc3c21` (configuration not stated) yielded a melting point of 106 to 107 °C.

Compound `FC(F)(F)c1ccc(-c2cc(C(F)(F)F)n3ncc(I)c3c2)cc1` returned a melting point of 130 °C.

In the case of `CN1CCCC1=C(C#N)C(=O)c1ccc(Cl)cc1`, the melting point is 115 °C.

In the case of `COc1c(C(=O)O)[nH]c2cccc(C)c12`, the melting point turned out to be 136 °C.

In turn, `CCOC(=O)CCCn1cc(-c2cccnc2)c2cc([N+](=O)[O-])ccc21` had a melting point of 76 to 78 °C.

For the compound `Nc1ccc(NC(=O)CCC(=O)O)cc1`, the melting point was in the range of 180 to 181 °C.

For `CCNc1cc(Nc2ccc(OC)cc2)ncn1`, the melting point lay within 190 to 193 °C.

In turn, `O=S1(=O)N=C(NCCCOc2cccc(CN3CCCCC3)c2)c2ccc(F)cc21` yielded a melting point of 139 to 163 °C.

On to `CC(C)(C)OC(=O)N1CCn2c(c(C(=O)O)c(C#N)c2-c2ccccc2)C1`, for which the melting point is 212 to 215 °C.

As for `CSc1ncccc1C1C(C(=O)OC(C)C)=C(C)NC(=S)N1C(=O)OC(C)C` (configuration not stated), the melting point was 119 to 121 °C.

Compound `CCCCNc1c(C(=O)OCC)c(C)nc2sc(C)nc12` showed a melting point of 53 to 54 °C.

`CSc1nccc(Oc2ccc(NC(=O)OC(C)(C)C)c3ccccc23)n1` had a melting point of 173 to 174 °C.

For the compound `CC(=O)Nc1ccc(C)cc1Oc1c(NCc2ccccc2)cc(C(=O)O)cc1S(N)(=O)=O`, the melting point was 203 °C.

On to `O=S(c1ccccc1)C1COc2ccc(OCc3ccc4ccccc4n3)cc2C1O` (configuration not stated), for which the melting point was in the range of 174 to 176 °C.

Compound `Cc1ccc(C2=NN=CNC2C)cc1` (configuration not stated) showed a melting point of 246 °C.

Regarding `CC(C)(C)OC(=O)NC1(CCOS(C)(=O)=O)CC1`, the melting point is 88 to 89 °C.

`O=C(NC(Cc1ccc(OCc2ccccc2)cc1)C(=O)O)c1cn2cc(-c3ccccc3F)ccc2n1` (configuration not stated): the melting point is 238 °C.

`CNn1cc(C(=O)O)c(=O)c2cc3c(cc21)OCO3`: the melting point was over 300 °C.

`CC(C)(C)OC(=O)[C@@H](Cc1ccccc1)NC(=O)C1CN(c2ccc(C#N)cc2)C(=O)O1` (some centres not stated) had a melting point of 72 °C.

With `Cc1cc(N2CCC(=O)CC2)c2cc(C)c(-c3ccc(Cl)cc3Cl)n2n1`, the melting point fell in the range of 170 to 171 °C.

In turn, `CCOC(=O)CSC(C)=NO` returned a melting point of 90 to 92 °C.

`COc1ccc2c(C(=O)N(CC(=O)O)C(=O)N(C)C)cccc2c1C(F)(F)F`: the melting point was in the range of 145 to 147 °C.

Turning to `O=C1OC2(CCN(C(=O)Nc3cnc(-c4ccccc4)cn3)CC2)c2cc(O)ccc21`, the melting point fell in the range of 206 to 208 °C.

In turn, `COc1cccc2cc(CNCCNC(=O)C34CCC(CC3=O)C4(C)C)oc12` (configuration not stated) came in with a melting point of 177 to 178 °C.

Consider `O=C1CCc2ccc(OCCCl)cc21`, for which the melting point lay in the range of 76 to 80 °C.

The compound `O=C(OCN1C(=O)c2ccccc2S1(=O)=O)c1ccncc1` yielded a melting point of 145 to 146 °C.

On to `CC(C)(C)c1cc(SC2CC(=O)OC2=O)cc(C(C)(C)C)c1O` (configuration not stated), for which the melting point fell in the range of 92 to 93 °C.

`COC(C#N)c1ccc2ccccc2c1` (configuration not stated) registered a melting point of 47 to 48 °C.

On to `Cc1nn(-c2ccccc2)c(-c2ccccc2)c1CC(=O)O`, for which the melting point fell in the range of 159 to 161 °C.

In turn, `Nc1c(Cl)cc(C(O)CNCCCCCCOCCc2ccc(N3CCOCC3)cc2)cc1Cl` (configuration not stated) registered a melting point of 102 to 103 °C.

For the compound `Cc1c(NC(=O)c2ccc(OC[C@@H]3CCCO3)cc2)ccc2[nH]c(CNCC(C)(C)O)cc12`, the melting point lay within 169 to 170 °C.

`CCOC=NC1=C(C#N)C(c2ccc(F)c(Cl)c2)c2ccc3ccccc3c2O1` (configuration not stated) gave a melting point of 146 to 148 °C.

As for `N#Cc1ccc(N2CCN(Cc3cnc4c(c3)NC(=O)C3CCCCN43)CC2)cc1` (configuration not stated), the melting point stood at 212 °C.

As to `CCOC(=O)C(=Cc1ccccc1)S(N)(=O)=O`, the melting point lay within 88 to 89 °C.

For the compound `COc1ccccc1NC(=O)Nc1ccc(C2CCN(C(=O)Nc3ccc(OCCO)cc3Cl)CC2)cc1`, the melting point lay within 166 to 168 °C.

Regarding `O=c1[nH]c2ccc(Br)cc2c(=O)n1CCCS`, the melting point fell in the range of 220 to 221 °C.

Take `O=C(O)c1ccc2c(Br)cccc2c1`: the melting point is 248 to 250 °C.

`Cc1csc(CN(C)C(=O)C23CC4CC(CC(C4)C2)C3)c1`: the melting point is 87 to 88 °C.

On to `C=Cc1cc(OCOCCOC)c(OCOCCOC)c(Cl)c1Cl`, for which the melting point turned out to be 60 °C.

The compound `Nc1nc2ccccc2c2c1nc(O)n2Cc1cccnc1` yielded a melting point of over 250 °C.

`Cc1c(Br)cc(-c2ccc(=O)[nH]n2)c(O)c1Br` came in with a melting point of over 280 °C.

As for `CCn1c(=O)c(C#N)c(N)c2ccc(C)nc21`, the melting point is over 300 °C.

As for `Cc1cc(-c2c(C)nc3ccc(N4CCNC(C)(C)C4)nn23)ccn1`, the melting point was in the range of 110 to 112 °C.

`CCCCCCCCCCCCC(=O)NN` came in with a melting point of 101 to 104 °C.

`O=C(Nc1ccc2[nH]ccc2c1)c1ccco1` gave a melting point of 181 to 182 °C.

`CN1C(=O)c2cccc(SCc3ccccc3)c2C1=O` came in with a melting point of 180 to 187 °C.

With `Cc1nc(Cl)c([N+](=O)[O-])c(NCC(C)(C)N)c1C`, the melting point is 89 to 94 °C.

Compound `CCc1cnc(N2CCC(c3ccc(COc4ccc(C#N)c(F)c4)nc3)CC2)nc1` came in with a melting point of 129 to 131 °C.

`CC(=O)N1CCC(C(=NO)c2ccc(Cl)cc2Cl)CC1` registered a melting point of 167 to 168 °C.

Turning to `CCOc1cccc(-c2c(C)c(=O)cc(-c3ccccc3)n2-c2ccccc2)c1`, the melting point lay within 146 to 149 °C.

In the case of `O=C(NN1CCCCC1)c1ccc(N2CCN(C(=O)N3CCC(c4cn[nH]c4)C3)c3ccccc32)cc1` (configuration not stated), the melting point came out at 251 °C.

The compound `CC1(c2ccccc2)OC(C(=O)O)Oc2ccccc21` (configuration not stated) showed a melting point of 153 °C.

In turn, `O=C(C1CCCCC1)N(CCN1CCN(CC(O)c2ccccc2)CC1)c1ccccn1` (configuration not stated) had a melting point of 140 to 142 °C.

`COc1cc2[nH]nc(CN3CCN(c4ccccc4OC)CC3)c2cc1OC`: the melting point turned out to be 192 °C.

`Oc1ccc(C2=C(c3ccc(OCCCCCI)cc3)c3ccc(O)cc3CCC2)cc1` yielded a melting point of 202 to 204 °C.

Take `CCOC(=O)NC(CCc1ccccc1)P(=O)(CC(=O)O)OCc1ccccc1` (configuration not stated): the melting point lay in the range of 151 to 153 °C.

`NC(=O)CCC(N)CO` (configuration not stated) yielded a melting point of 92 to 95 °C.

In turn, `Nc1cccc(S(=O)(=O)NCc2cccnc2)c1` gave a melting point of 129 °C.

In turn, `O=C(O)CCc1cnoc1-c1ccc(F)c(Br)c1` gave a melting point of 136 to 137 °C.

Compound `CCCCC1(CC(=O)N(CC)CC)C(=O)N(c2ccccc2)N(c2ccccc2)C1=O` returned a melting point of 80.5 to 82 °C.

The compound `CC(=O)Nc1ccc(Oc2c(-c3ccc(S(C)(=O)=O)cc3)cnn(CC(F)(F)F)c2=O)cc1` came in with a melting point of 215 to 216 °C.

For the compound `O=C(O)C(=O)N1CCC(Oc2ccccc2)CC1`, the melting point fell in the range of 109 to 112 °C.

`O=C(Nc1cccc2c1C(=O)c1c-2n[nH]c1-c1ccc(N2CCC(N3CCOCC3)CC2)cc1)NN1CCOCC1` gave a melting point of 249 °C.

Consider `COCCc1nc2c(N)nc3ccc(Br)cc3c2n1CCCN1CCCC1=O`, for which the melting point was 185 to 188 °C.
